Values after ≈ are worked out from the molar mass of the structure shown. Where two headings read alike, the source gives them in different places.
Columns and labels:
Type in all cases: physicochemical
[1] = Hygroscopicity measurements (DVS sorption/desorption profiles); details: 25° C.
Method: The sorption/desorption profiles of the forms of the present invention were tested at 25° C. under 0-90% relative humidity. The forms of the present invention were classified according to the following criteria: Deliquescent: Sufficient water is absorbed to form a liquid. […] Hygroscopic: Increase in mass is less than 15% and equal to or greater than 2%. Slightly hygroscopic: Increase in mass is less than 2% and equal to or greater than 0.2%. Non-hygroscopic: Increase in mass is less than 0.2%.

[2] = Aqueous solubility measurements; details: for solubility at 24 h: thermodynamic from solid, read-out: HPLC solubility; for pH: final pH of saturated solution
Method: Testing media: water, pH 1.2, 4.5, 6.8, 7.4 USP buffers, 0.01 N HCl, 0.1 N HCl, SGF, FaSSIF, FeSSIF.
The various testing media were prepared as follows:
pH 1.2 (USP): 50 mL of 0.2 M potassium chloride solution were placed in a 200 mL volumetric flask to which 85.0 mL of 0.2M hydrochloric acid solution were added followed by the addition of water to obtain the required volume.
pH 4.5 (USP): 50 mL of 0.2 M potassium biphthalate solution were placed in a 200 mL volumetric flask to which 8.8 mL of 0.2 M sodium hydroxide solution were added followed by the addition of water to obtain the required volume.
pH 6.8 (USP): 50 mL of 0.2 M monobasic potassium phosphate solution were placed in a 200 mL volumetric flask to which 22.4 mL of 0.2 M sodium hydroxide solution were added followed by the addition of water to obtain the required volume.
pH 7.4 (USP): 50 mL of 0.2 M monobasic potassium phosphate solution were placed in a 200 mL volumetric flask to which 39.1 mL of 0.2 M sodium hydroxide solution were added followed by the addition of water to obtain the required volume.
Simulated gastric fluid (SGF): 0.01 N HCl, 0.05% sodium lauryl sulfate, and 0.2% NaCl.
Fasted state simulated intestinal fluid (FaSSIF): 29 mM NaH2PO4, 3 mM Na taurocholate, 0.75 mM lecithin, 103 mM NaCl, and NaOH to obtain pH 6.5.
Fed state simulated intestinal fluid (FeSSIF): 144 mM acetic acid, 15 mM Na taurocholate, 3.75 mM lecithin, 204 mM NaCl, and NaOH to obtain pH 5.0.
Testing procedure: The tested febuxostat form was placed in each of the different media and was kept shaken for 24 hours at 25° C. Then, the saturated solution was filtered. The concentration of the febuxostat form in filtrate was determined by HPLC. The final pH was then tested. The test was conducted in duplication.

[3] = Physical stability measurements (XRPD, DSC, TGA)
Method: Testing conditions: 40° C., 60° C., 40° C./RH 75%, 60° C./RH 75%, light
Testing procedure: About 50 mg of a febuxostat form were weighed in glass vial for testing the physical stability and were stored under different conditions for 1 week and 2 weeks, separately. The same febuxostat form was stored at −20° C. as control. XRPD, DSC and TGA of each of the febuxostat forms were measured at the end of the first and second weeks.

[4] = Bulk and tapped density measurements
Method: Bulk density testing: A febuxostat form in an amount which is sufficient to complete the test was passed through a 1.0 mm (No. 18) screen to break up agglomerates that may have formed during storage. The febuxostat form was then weighed (M) and the powder was added into a 10 mL graduated cylinder. The powder was carefully leveled without compacting, and the unsettled apparent volume, Vo, was read. The bulk density, in g per mL, was calculated by the formula: Bulk Density=M/Vo Tapped density testing: A febuxostat form in an amount which is sufficient to complete the test was passed through a 1.0 mm (No. 18) screen to break up agglomerates that may have formed during storage. The febuxostat form was then weighed and the powder was added into a 10 mL graduated cylinder. The powder was carefully leveled without compacting. The cylinder was tapped 500 times initially and the tapped volume, Va, was measured to the nearest graduated unit. The tapping was then repeated for additional 750 times and the tapped volume, Vb, was measured to the nearest graduated unit. If the difference between the two volumes was less than 2%, Vb was taken as the final tapped volume, Vf. The tapped density, in g per mL, was calculated by the formula: Tapped Density=M/Vf

[5] = media 0.01N HCl, 24 hours at 25° C.
[6] = media 0.1N HCl, 24 hours at 25° C.
[7] = media FaSSIF, 24 hours at 25° C.
[8] = media FeSSIF, 24 hours at 25° C.
[9] = media pH 1.2 (USP), 24 hours at 25° C.
[10] = media pH 4.5 (USP), 24 hours at 25° C.
[11] = media pH 6.8 (USP), 24 hours at 25° C.
[12] = media pH 7.4 (USP), 24 hours at 25° C.

Cc1nc(-c2ccc(OCC(C)C)c(C#N)c2)sc1C(=O)O [Form V, 2-(3-cyano-4-isobutoxyphenyl)-4-methyl-5-thiazolecarboxylic acid]
Hygroscopicity classification ([1]; 0-90% relative humidity): very hygroscopic | weight loss after sorption-desorption cycle ([1]; DVS, might be attributed to DMSO evaporation at high humidity): about 10% | Change in Mass (%) - ref, Desorption ([1]; Target % P/P0 0.0): −9.66% | Change in Mass (%) - ref, Sorption ([1]; Target % P/P0 0.0): 0.00% | Change in Mass (%) - ref, Desorption ([1]; Target % P/P0 10.0): −8.56% | Change in Mass (%) - ref, Hysteresis ([1]; Target % P/P0 10.0): −8.64% | Change in Mass (%) - ref, Sorption ([1]; Target % P/P0 10.0): 0.08% | Change in Mass (%) - ref, Desorption ([1]; Target % P/P0 20.0): −8.49% | Change in Mass (%) - ref, Hysteresis ([1]; Target % P/P0 20.0): −8.60% | Change in Mass (%) - ref, Sorption ([1]; Target % P/P0 20.0): 0.12% | Change in Mass (%) - ref, Desorption ([1]; Target % P/P0 30.0): −8.40% | Change in Mass (%) - ref, Hysteresis ([1]; Target % P/P0 30.0): −8.53% | Change in Mass (%) - ref, Sorption ([1]; Target % P/P0 30.0): 0.14% | Change in Mass (%) - ref, Desorption ([1]; Target % P/P0 40.0): −8.30% | Change in Mass (%) - ref, Hysteresis ([1]; Target % P/P0 40.0): −8.50% | Change in Mass (%) - ref, Sorption ([1]; Target % P/P0 40.0): 0.20% | Change in Mass (%) - ref, Desorption ([1]; Target % P/P0 50.0): 1.16% | Change in Mass (%) - ref, Hysteresis ([1]; Target % P/P0 50.0): 0.93% | Change in Mass (%) - ref, Sorption ([1]; Target % P/P0 50.0): 0.23% | Change in Mass (%) - ref, Desorption ([1]; Target % P/P0 60.0): 7.34% | Change in Mass (%) - ref, Hysteresis ([1]; Target % P/P0 60.0): 7.02% | Change in Mass (%) - ref, Sorption ([1]; Target % P/P0 60.0): 0.31% | Change in Mass (%) - ref, Desorption ([1]; Target % P/P0 70.0): 14.03% | Change in Mass (%) - ref, Hysteresis ([1]; Target % P/P0 70.0): 12.45% | Change in Mass (%) - ref, Sorption ([1]; Target % P/P0 70.0): 1.59% | Change in Mass (%) - ref, Desorption ([1]; Target % P/P0 80.0): 23.42% | Change in Mass (%) - ref, Hysteresis ([1]; Target % P/P0 80.0): 7.98% | Change in Mass (%) - ref, Sorption ([1]; Target % P/P0 80.0): 15.44% | Change in Mass (%) - ref, Desorption ([1]; Target % P/P0 90.0): 36.92% | Change in Mass (%) - ref, Sorption ([1]; Target % P/P0 90.0): 36.92% | solubility at 24 h ([2]; USP buffer pH 6.8, 25 °C, pH 6.8, aqueous buffer, media pH 6.8 (USP), 24 hours at 25° C.): 1120 µg/mL (≈ 3550 µM) | pH [2, 5]: 2.003 | pH [2, 6]: 0.951 | pH [2, 7]: 6.384 | pH [2, 8]: 4.995 | pH ([2]; media SGF, 24 hours at 25° C.): 2.108 | pH [2, 9]: 1.157 | pH [2, 10]: 4.452 | pH [2, 11]: 6.641 | pH [2, 12]: 6.960 | pH ([2]; media water, shaken 24 hours at 25° C.): 7.520 | Visual solubility [2, 5]: few particles | Visual solubility [2, 6]: few particles | HPLC solubility [2, 7]: 513.37 µg/mL | Visual solubility [2, 7]: Turbid + few particles | HPLC solubility [2, 8]: 180.61 µg/mL | Visual solubility [2, 8]: Turbid + few particles | Visual solubility ([2]; media SGF, 24 hours at 25° C.): few particles | Visual solubility [2, 9]: few particles | HPLC solubility [2, 10]: 0.38 µg/mL | Visual solubility [2, 10]: Turbid + few particles | Visual solubility [2, 11]: Turbid + few particles | HPLC solubility [2, 12]: 4317.12 µg/mL | Visual solubility [2, 12]: Slightly turbid | Visual solubility ([2]; media water, 24 hours at 25° C.): Turbid + few particles | aqueous solubility (in words) ([2]; pH1.2 USP buffer, 0.01N HCl, 0.1N HCl and SGF): poor solubility | aqueous solubility (in words) ([2]; pH6.8 USP buffer, pH7.4 USP buffer, FaSSIF, FeSSIF): good solubility | solubility at 24 h ([2]; water, 25 °C, water, media water, 24 hours at 25° C.): 54.9 µg/mL (≈ 173 µM) | physical stability (XRPD, DSC, TGA) ([3]; 40° C., 60° C. and light at the end of the first and second week): stable | physical stability (XRPD, DSC, TGA), form conversion ([3]; 40° C./75% RH at the end of the first week): partially converted to form G | physical stability (XRPD, DSC, TGA), form conversion ([3]; 40° C./75% RH at the end of the second week): completely converted to form G | physical stability (XRPD, DSC, TGA), form conversion ([3]; 60° C./75% RH at the end of the first and second weeks): completely converted to form G | Bulk Density [4]: 0.444 g/mL | Tapped Density [4]: 0.637 g/mL | bulk and tapped densities (in words) ([4]; compared among forms V, IX, XI and form G): adequate bulk and tapped densities

— patent US20130225830A1, “POLYMORPHS OF FEBUXOSTAT” (MAPI PHARMA LIMITED, priority 2010, published 2013)
